In patent US9113629B2, “4-amino-6-(4-substituted-phenyl)-picolinates and 6-amino-2-(4-substituted-phenyl)-pyrimidine-4-carboxylates and their use as herbicides” (DOW AGROSCIENCES LLC, priority 2013, dated 2015):
Like-named read-outs stand apart in the source and are kept apart here.

What was measured:
[1] = system: Key Grass and Sedge Weeds as well as Grass Crops; assay: Post-emergent Test II herbicidal activity (Table 6); format: in vivo; settings: post-emergence, 336 h; for pest or weed control at 70 g/ha: 70 g ai/ha; for pest or weed control at 140 g/ha: 140 g ai/ha
In short: (§1)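 Compounds, dissolved in 97:3 acetone/DMSO and diluted into an aqueous carrier containing crop oil concentrate and Triton X-155, are applied over the top of young plants at 187 L/ha. Injury is scored visually at 14 d, 0% meaning no effect and 100% complete kill.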

[2] = system: Key Broadleaf Weed and Crop Species; assay: Post-emergent Test II herbicidal activity (Table 5); format: in vivo; settings: post-emergence, 336 h, 14 days after application; for pest or weed control at 70 g/ha: application rate 70 g ai/ha; for pest or weed control at 140 g/ha: application rate 140 g ai/ha
In short: as §1

[3] = CYPES: yellow nutsedge (Cyperus esculentus), read-out: Visual Growth Reduction (%) 14 Days After Application, CYPES
[4] = DIGSA: crabgrass (Digitaria sanguinalis), read-out: Visual Growth Reduction (%) 14 Days After Application, DIGSA
[5] = ECHCG: barnyardgrass (Echinochloa crus-galli), read-out: Visual Growth Reduction (%) 14 Days After Application, ECHCG
[6] = ORYSA: rice (Oryza sativa), crop, read-out: Visual Growth Reduction (%) 14 Days After Application, ORYSA
[7] = SETFA: giant foxtail (Setaria faberi), read-out: Visual Growth Reduction (%) 14 Days After Application, SETFA
[8] = SORVU: grain sorghum (Sorghum vulgare), read-out: Visual Growth Reduction (%) 14 Days After Application, SORVU
[9] = TRZSS (wheat, Triticum aestivum), crop, read-out: Visual Growth Reduction (%) 14 Days After Application, TRZSS
[10] = ZEAMX: maize, corn (Zea mays), crop, read-out: Visual Growth Reduction (%) 14 Days After Application, ZEAMX
[11] = ABUTH: velvetleaf (Abutilon theophrasti), read-out: Visual Growth Reduction (%) 14 Days After Application, ABUTH
[12] = AMARE: redroot pigweed (Amaranthus retroflexus), read-out: Visual Growth Reduction (%) 14 Days After Application, AMARE
[13] = BRSNN: oilseed-rape, canola (Brassica napus), read-out: Visual Growth Reduction (%) 14 Days After Application, BRSNN
[14] = CHEAL: lambsquarters (Chenopodium album), read-out: Visual Growth Reduction (%) 14 Days After Application, CHEAL
[15] = EPHHL: wild poinsettia (Euphorbia heterophylla), read-out: Visual Growth Reduction (%) 14 Days After Application, EPHHL
[16] = HELAN: sunflower (Helianthus annuus), read-out: Visual Growth Reduction (%) 14 Days After Application, HELAN
[17] = VIOTR: wild pansy (Viola tricolor), read-out: Visual Growth Reduction (%) 14 Days After Application, VIOTR

Question: What does the source list for `Nc1c(F)c(-c2ccc(Br)c(F)c2F)nc(C(=O)O)c1Cl` [Compound 147]?
Answer: pest or weed control at 70 g/ha [1, 3]: 95 to 100%; pest or weed control at 140 g/ha [1, 3]: 95 to 100%; pest or weed control at 70 g/ha [1, 4]: 85 to 94%; pest or weed control at 140 g/ha [1, 4]: 95 to 100%; pest or weed control at 70 g/ha [1, 5]: 95 to 100%; pest or weed control at 140 g/ha [1, 5]: 95 to 100%; pest or weed control at 70 g/ha [1, 6]: 60 to 74%; pest or weed control at 140 g/ha [1, 6]: 75 to 84%; pest or weed control at 70 g/ha [1, 7]: 0 to 29%; pest or weed control at 140 g/ha [1, 7]: 95 to 100%; pest or weed control at 70 g/ha [1, 8]: 95 to 100%; pest or weed control at 140 g/ha [1, 8]: 95 to 100%; pest or weed control at 70 g/ha [1, 9]: 60 to 74%; pest or weed control at 140 g/ha [1, 9]: 60 to 74%; pest or weed control at 70 g/ha [1, 10]: 95 to 100%; pest or weed control at 140 g/ha [1, 10]: 95 to 100%; pest or weed control at 70 g/ha [2, 11]: 95 to 100%; pest or weed control at 140 g/ha [2, 11]: 0 to 29%; pest or weed control at 70 g/ha [2, 12]: 95 to 100%; pest or weed control at 140 g/ha [2, 12]: 95 to 100%; pest or weed control at 70 g/ha [2, 13]: 95 to 100%; pest or weed control at 140 g/ha [2, 13]: 95 to 100%; pest or weed control at 70 g/ha [2, 14]: 95 to 100%; pest or weed control at 140 g/ha [2, 14]: 95 to 100%; pest or weed control at 70 g/ha [2, 15]: 95 to 100%; pest or weed control at 140 g/ha [2, 15]: 95 to 100%; pest or weed control at 70 g/ha [2, 16]: 95 to 100%; pest or weed control at 140 g/ha [2, 16]: 95 to 100%; pest or weed control at 70 g/ha [2, 17]: 95 to 100%; pest or weed control at 140 g/ha [2, 17]: 95 to 100%
